Tests used:
Assay type in all cases: in vivo
Kochia (Kochia scoparia) [1] = assay: Test A preemergence; details: Bassia scoparia, pre-emergence, 240 h, 0 to 100 scale where 0 is no effect and 100 is complete control, read-out: Kochia plant response rating
Method in brief: (§1)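 Visual injury scores from 0, no effect, to 100, complete control, were assigned versus untreated controls roughly 10 d after treatment in the greenhouse. Test chemicals, formulated with surfactant in a non-phytotoxic solvent, were applied to planted seeds as a preemergence soil spray or postemergence to one- to two-leaf plants 2 to 10 cm tall, in loam–sand soil.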

[2] = tested on: barnyardgrass (Echinochloa crus-galli); assay: Test A preemergence; details: Echinochloa crus-galli, pre-emergence, 240 h, 0 to 100 scale where 0 is no effect and 100 is complete control, read-out: Barnyardgrass plant response rating
Method in brief: as §1

[3] = tested on: giant foxtail (Setaria faberii); assay: Test A preemergence; details: Setaria faberi, pre-emergence, 240 h, 0 to 100 scale where 0 is no effect and 100 is complete control, read-out: Foxtail, Giant plant response rating
Method in brief: as §1

[4] = tested on: pigweed (Amaranthus retroflexus); assay: Test A preemergence; details: Amaranthus retroflexus, pre-emergence, 240 h, 0 to 100 scale where 0 is no effect and 100 is complete control, read-out: Pigweed plant response rating
[5] = tested on: ragweed (common ragweed, Ambrosia elatior); assay: Test A preemergence; details: Ambrosia artemisiifolia, pre-emergence, 240 h, 0 to 100 scale where 0 is no effect and 100 is complete control, read-out: Ragweed plant response rating
Method in brief: as §1

[6] = tested on: ryegrass, Italian (Italian ryegrass, Lolium multiflorum); assay: Test A preemergence; details: Lolium multiflorum, pre-emergence, 240 h, 0 to 100 scale where 0 is no effect and 100 is complete control, read-out: Ryegrass, Italian plant response rating
Method in brief: as §1

[7] = tested on: Galium (catchweed bedstraw, Galium aparine); assay: Test A postemergence; details: Galium, post-emergence, 240 h
Method in brief: as §1

Kochia (Kochia scoparia) [8] = assay: Test A postemergence; details: Bassia scoparia, post-emergence, 240 h
Method in brief: as §1

[9] = tested on: barnyardgrass (Echinochloa crus-galli); assay: Test A postemergence; details: Echinochloa crus-galli, post-emergence, 240 h
Method in brief: as §1

[10] = tested on: blackgrass (Alopecurus myosuroides); assay: Test A postemergence; details: Alopecurus myosuroides, post-emergence, 240 h
Method in brief: as §1

corn (Zea mays) = assay: Test A postemergence; details: Zea mays, post-emergence, 240 h
Method in brief: as §1

[11] = tested on: giant foxtail (Setaria faberii); assay: Test A postemergence; details: Setaria faberi, post-emergence, 240 h
Method in brief: as §1

[12] = tested on: pigweed (Amaranthus retroflexus); assay: Test A postemergence; details: Amaranthus retroflexus, post-emergence, 240 h, 125 g ai/ha, postemergence, visual injury vs untreated controls after approx. 10 d; 0 = no effect, 100 = complete control; read-out: Pigweed plant response rating (0 to 100 scale)
Method in brief: as §1

[13] = tested on: ragweed (common ragweed, Ambrosia elatior); assay: Test A postemergence; details: Ambrosia artemisiifolia, post-emergence, 240 h, 125 g ai/ha, postemergence, visual injury vs untreated controls after approx. 10 d; 0 = no effect, 100 = complete control; read-out: Ragweed plant response rating (0 to 100 scale)
Method in brief: as §1

[14] = tested on: ryegrass, Italian (Italian ryegrass, Lolium multiflorum); assay: Test A postemergence; details: Lolium multiflorum, post-emergence, 240 h, 125 g ai/ha, postemergence, visual injury vs untreated controls after approx. 10 d; 0 = no effect, 100 = complete control; read-out: Ryegrass, Italian plant response rating (0 to 100 scale)
Method in brief: as §1

[15] = tested on: wheat (Triticum aestivum); assay: Test A postemergence; details: Triticum aestivum, post-emergence, 240 h, 125 g ai/ha, postemergence, visual injury vs untreated controls after approx. 10 d; 0 = no effect, 100 = complete control; read-out: Wheat plant response rating (0 to 100 scale)
Method in brief: as §1

[16] = tested on: barnyardgrass (Echinochloa crus-galli); assay: Test B flooded paddy test; details: Echinochloa crus-galli, 250 g ai/ha, Flood; 0 to 100 scale where 0 is no effect and 100 is complete control; read-out: Barnyardgrass plant response rating
Method in brief: (§2)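 Visual ratings (0 none to 100 complete control) are relative to untreated plants, taken 13–15 d after treatment in a greenhouse. Test material went straight into floodwater standing 3 cm above the soil, kept constant, on plants at the 2-leaf stage.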

[17] = tested on: ducksalad (Heteranthera limosa); assay: Test B flooded paddy test; details: Heteranthera limosa, 250 g ai/ha, Flood; 0 to 100 scale where 0 is no effect and 100 is complete control; read-out: Ducksalad plant response rating
Method in brief: as §2

rice (Oryra sativa) = assay: Test B flooded paddy test; details: Oryza sativa, 250 g ai/ha, Flood; 0 to 100 scale where 0 is no effect and 100 is complete control; read-out: Rice plant response rating
Method in brief: as §2

[18] = tested on: sedge, umbrella (small-flower umbrella sedge, Cyperus difformis); assay: Test B flooded paddy test; details: Cyperus difformis, 250 g ai/ha, Flood; 0 to 100 scale where 0 is no effect and 100 is complete control; read-out: Sedge, Umbrella plant response rating
Method in brief: as §2

[19] = 125 g ai/ha, preemergence, visual injury rating, approximately 10 d

COc1ccc(C(F)(F)F)cc1[C@H]1CN(C)C(=O)[C@@H]1C(=O)Nc1ccccc1F [Compound 1183]
pest or weed control at 31 g/ha (Kochia (Kochia scoparia) [1]; 31 g ai/ha, Preemergence): 0% | pest or weed control at 125 g/ha (Kochia (Kochia scoparia) [1]; [19]): 0% | pest or weed control at 31 g/ha ([2]; 31 g ai/ha, Preemergence): 90% | pest or weed control at 125 g/ha [2, 19]: 90% | pest or weed control at 31 g/ha ([3]; 31 g ai/ha, Preemergence): 80% | pest or weed control at 125 g/ha [3, 19]: 90% | pest or weed control at 31 g/ha ([4]; 31 g ai/ha, Preemergence): 0% | pest or weed control at 125 g/ha [4, 19]: 0% | pest or weed control at 31 g/ha ([5]; 31 g ai/ha, Preemergence): 0% | pest or weed control at 125 g/ha [5, 19]: 0% | pest or weed control at 31 g/ha ([6]; 31 g ai/ha, Preemergence): 20% | pest or weed control at 125 g/ha [6, 19]: 50% | pest or weed control at 125 g/ha ([7]; 125 g ai/ha, postemergence, visual injury vs untreated controls after approx. 10 d, 0 = no effect, 100 = complete control, read-out: Galium plant response rating (0 to 100 scale)): 0% | pest or weed control at 31 g/ha ([7]; Postemergence, 31 g ai/ha, visual injury after approx. 10 d, 0 to 100 scale, 0 no effect, 100 complete control, read-out: Plant response rating, Galium): 0% | pest or weed control at 125 g/ha (Kochia (Kochia scoparia) [8]; 125 g ai/ha, postemergence, visual injury vs untreated controls after approx. 10 d, 0 = no effect, 100 = complete control, read-out: Kochia plant response rating (0 to 100 scale)): 0% | pest or weed control at 31 g/ha (Kochia (Kochia scoparia) [8]; Postemergence, 31 g ai/ha, visual injury after approx. 10 d, 0 to 100 scale, 0 no effect, 100 complete control, read-out: Plant response rating, Kochia): 0% | pest or weed control at 125 g/ha ([9]; 125 g ai/ha, postemergence, visual injury vs untreated controls after approx. 10 d, 0 = no effect, 100 = complete control, read-out: Barnyardgrass plant response rating (0 to 100 scale)): 90% | pest or weed control at 31 g/ha ([9]; Postemergence, 31 g ai/ha, visual injury after approx. 10 d, 0 to 100 scale, 0 no effect, 100 complete control, read-out: Plant response rating, Barnyardgrass): 80% | pest or weed control at 125 g/ha ([10]; 125 g ai/ha, postemergence, visual injury vs untreated controls after approx. 10 d, 0 = no effect, 100 = complete control, read-out: Blackgrass plant response rating (0 to 100 scale)): 50% | pest or weed control at 31 g/ha ([10]; Postemergence, 31 g ai/ha, visual injury after approx. 10 d, 0 to 100 scale, 0 no effect, 100 complete control, read-out: Plant response rating, Blackgrass): 0% | plant injury at 125 g/ha (corn (Zea mays); 125 g ai/ha, postemergence, visual injury vs untreated controls after approx. 10 d, 0 = no effect, 100 = complete control, read-out: Corn plant response rating (0 to 100 scale)): 60% | Corn plant response rating (crop injury, 0 = no effect, 100 = complete kill) at 31 g/ha (corn (Zea mays); Postemergence, 31 g ai/ha, visual injury after approx. 10 d, 0 to 100 scale, 0 no effect, 100 complete control): 30% | pest or weed control at 125 g/ha ([11]; 125 g ai/ha, postemergence, visual injury vs untreated controls after approx. 10 d, 0 = no effect, 100 = complete control, read-out: Foxtail, Giant plant response rating (0 to 100 scale)): 80% | pest or weed control at 31 g/ha ([11]; Postemergence, 31 g ai/ha, visual injury after approx. 10 d, 0 to 100 scale, 0 no effect, 100 complete control, read-out: Plant response rating, Foxtail, Giant): 70% | pest or weed control at 125 g/ha [12]: 0% | pest or weed control at 125 g/ha [13]: 0% | pest or weed control at 125 g/ha [14]: 50% | plant injury at 125 g/ha [15]: 50% | pest or weed control at 250 g/ha [16]: 95% | pest or weed control at 250 g/ha [17]: 95% | pest or weed control at 250 g/ha (rice (Oryra sativa)): 10% | pest or weed control at 250 g/ha [18]: 0%

Source: patent publication US12077503B2, “Substituted cyclic amides and their use as herbicides” (FMC CORPORATION, priority 2015, dated 2024)
